Measurements as given in US20250275953A1, “VODOBATINIB FOR REDUCING PROGRESSION OF PARKINSON'S DISEASE” (Sun Pharma Advanced Research Company Ltd., priority 2022, published 2025).
Entries after “also recorded” stand apart in the source; their conditions may differ.

Tests used:
[1] = Safety and tolerability, Parkinson's disease patients (NCT02970019); format: in vivo, human; details: for Possibly related AEs by subject: daily for 14 days
Excerpt: Of these, 44 subjects completed the study. An additional 10 subjects were enrolled in the open label part of the study, of these, one subject was discontinued due to an AE of vomiting.
Safety population was comprised of 48 subjects (not including those in the open label cohorts) and PK population was comprised of 36 subjects from double blind part and 10 subjects from open label part of the study. No subjects were discontinued from the study due to protocol deviation.
Study NCT02970019 was a multi-center safety and tolerability study of vodobatinib in 60 subjects with Parkinson's Disease (diagnosed with PD according to the Brain Bank criteria of the United Kingdom Parkinson's Disease Society) who were randomized to receive placebo or various daily doses of vodobatinib for 14 days in a parallel assignment design with quadruple masking (participant, care provider, investigator, and outcomes assessor.) In study NCT02970019, consecutive cohorts of up to eight subjects received once-daily doses of 6, 12, 18, 24, 48, 96, 192, or 384 mg of study drug for 14 days, with six subjects in each cohort on vodobatinib and two subjects in each cohort on placebo. An alternating panel design was used such that subjects in the 6 and 18 mg cohorts were the same, and subjects in the 12 and 24 mg cohorts were the same, thus yielding 48 total individuals enrolled in the eight cohorts. There was a wash-out period of 14 days between each were studied in sequential ascending dose cohorts. In parallel to the double-blind cohorts, up to four subjects per dose cohort were enrolled in an open-label study of vodobatinib to receive 24, 48 or 96 mg once-daily doses of for 14 days. These subjects underwent lumbar puncture to collect CSF on Day 1, and 2-3 h after the last morning dose on Day 14. PK blood draws (for both double-blind and open label) were collected at pre-dose (˜30 min) and at 0.5, 1, 2, 4, 8, 12 and 24 h post-dose on Days 1 and 14.

Abl (T315I) = Abl (T315I) (Homo sapiens, UniProt P00519, T315I); test: Biochemical kinase assay, gatekeeper mutant Abl
Excerpt: (§1) Conventional biochemical kinase assays, using radioactivity and fluorescence as readouts, were used to derive half maximal-inhibitory concentrations (IC50) values.

c-Abl = c-Abl (Homo sapiens, UniProt P00519); test: Competition binding KINOMEscan assay (DiscoverX); details: read-out: Kd, Binding Assay hAbl
Experimental: The binding affinity of vodobatinib to c-Abl was determined in a competition binding KINOMETM scan assay. […] Liganded beads were blocked with excess biotin, and washed with blocking buffer (SEA BLOCK Pierce), with 1% BSA, 0.05% Tween 20, 1 mM DTT) to remove unbound ligand and reduce non-specific binding. […] The kinase concentration in the eluates was measured by qPCR. The kinase concentrations in test compound treated wells were compared with that in the non-treated wells across the concentration range to generate the Kd values.

Abl = Abl (Homo sapiens, UniProt P00519); test: Biochemical kinase assay, native Abl (radiometric substrate phosphorylation)
Experimental: as §1
Inhibition of c-Abl kinase activity by vodobatinib was determined in a radiometric detection assay using γ-33P-labeled-ATP. […] (Abl substrate peptide), 10 mM magnesium acetate, and [γ-33P-ATP]. The reaction was initiated by addition of an MgATP mix. Following incubation for 40 minutes at room temperature, the reaction was stopped by addition of 3% phosphoric acid solution. The radiolabeled substrate was separated onto a P30 filtermat, which was washed with 75 mM phosphoric acid and methanol, and dried, following which radioactivity incorporated into the substrate was determined by scintillation counting. Similar assessments were also carried out using recombinant murine c-Abl enzyme using the identical assay format as described above.

Arg = Arg (Homo sapiens, UniProt P42684); test: Biochemical kinase assay
Excerpt: as §1

[2] = Exposure on transition from capsule to powder, phase 2 study in early PD; format: in vivo, human; details: on average
Experimental: A phase 2, randomized, double-blind, placebo-controlled study of vodobatinib in approximately 504 subjects with early Parkinson's disease is ongoing. The subjects are being administered a low dose (96 mg capsule or 192 mg powder of vodobatinib) or high dose (192 mg capsule or 384 mg powder of vodobatinib). The subjects are initially administered the capsule and then transitioned to the powder. […] The objective of the study is to determine if vodobatinib reduces the rate of progression of early-stage Parkinson's disease over 40 weeks, as defined by the sum of the MDS-UPDRS (Movement Disorder Society-Unified Parkinson's Disease Rating Scale) Parts 2 and 3 scores.

Arg, sequence (P42684 whole entry): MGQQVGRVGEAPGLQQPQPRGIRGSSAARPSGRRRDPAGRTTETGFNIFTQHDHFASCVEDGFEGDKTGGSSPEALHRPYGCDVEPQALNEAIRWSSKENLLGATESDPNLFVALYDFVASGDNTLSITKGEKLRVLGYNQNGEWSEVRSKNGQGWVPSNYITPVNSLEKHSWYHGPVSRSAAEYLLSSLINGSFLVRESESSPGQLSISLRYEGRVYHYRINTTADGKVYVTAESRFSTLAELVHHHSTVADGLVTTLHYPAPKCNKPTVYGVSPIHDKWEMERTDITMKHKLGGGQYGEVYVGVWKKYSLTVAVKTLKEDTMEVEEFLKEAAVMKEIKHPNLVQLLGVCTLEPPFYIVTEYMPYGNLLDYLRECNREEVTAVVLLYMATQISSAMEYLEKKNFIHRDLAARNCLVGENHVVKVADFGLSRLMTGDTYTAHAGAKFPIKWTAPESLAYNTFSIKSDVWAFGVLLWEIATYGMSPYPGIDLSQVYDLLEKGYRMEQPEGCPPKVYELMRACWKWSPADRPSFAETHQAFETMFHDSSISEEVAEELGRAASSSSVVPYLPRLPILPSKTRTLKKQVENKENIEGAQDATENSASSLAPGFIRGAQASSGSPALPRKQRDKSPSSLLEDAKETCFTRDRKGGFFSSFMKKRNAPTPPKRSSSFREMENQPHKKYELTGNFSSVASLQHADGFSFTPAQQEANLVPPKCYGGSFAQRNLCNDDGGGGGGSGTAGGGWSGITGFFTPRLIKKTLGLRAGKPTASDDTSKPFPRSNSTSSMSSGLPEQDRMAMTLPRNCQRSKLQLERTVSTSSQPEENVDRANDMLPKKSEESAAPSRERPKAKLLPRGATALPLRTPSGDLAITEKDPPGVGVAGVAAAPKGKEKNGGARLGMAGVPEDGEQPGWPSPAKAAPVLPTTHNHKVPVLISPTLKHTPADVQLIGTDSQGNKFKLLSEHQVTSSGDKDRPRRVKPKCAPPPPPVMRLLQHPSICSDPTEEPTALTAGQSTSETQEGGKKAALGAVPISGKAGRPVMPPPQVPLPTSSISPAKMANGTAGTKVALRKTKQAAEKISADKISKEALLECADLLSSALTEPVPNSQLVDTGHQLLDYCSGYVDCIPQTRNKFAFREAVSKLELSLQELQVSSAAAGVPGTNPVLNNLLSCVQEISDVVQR

For `Cc1ccc(C(=O)NNC(=O)c2c(C)cccc2Cl)cc1C#Cc1cnc2ccccc2c1` [N′-(2-chloro-6-methylbenzoyl)-4-methyl-3-[2-(3-quinolyl)ethynyl]-benzohydrazide], the “n/N (number of AEs per number of subjects in dose group)” value ([1]; 6 mg DB) was 6 mg DB (5/8), the “Possibly related AEs by subject” value ([1]; 6 mg DB, listed as Vodobatinib) was “Increased appetite, feet & ankle weakness, infraorbital puffiness,; also recorded: increased tremor and dry eyes” and the “n/N (number of AEs per number of subjects in dose group)” value ([1]; 12 mg DB) was 12 mg DB (3/8). The “Possibly related AEs by subject” value ([1]; 12 mg DB, listed as Vodobatinib) was “Light-headedness; also recorded: Decreased balance & decreased gait”, the “n/N (number of AEs per number of subjects in dose group)” value ([1]; 18 mg DB) was 18 mg DB (3/6) and the “Possibly related AEs by subject” value ([1]; 18 mg DB) was “New onset atrial fibrillation and orthostasis (moderate severity)”. The “n/N (number of AEs per number of subjects in dose group)” value ([1]; 24 mg DB) was 24 mg DB (1/8), the “Possibly related AEs by subject” value ([1]; 24 mg DB) was “None” and the “n/N (number of AEs per number of subjects in dose group)” value ([1]; 24 mg OL) was 24 mg OL (3/3). For the same molecule, the “Possibly related AEs by subject” value ([1]; 24 mg OL, listed as Vodobatinib) was “Vertigo, headache, nausea, weakness, vomiting (all moderate”, the “n/N (number of AEs per number of subjects in dose group)” value ([1]; 48 mg DB) was 48 mg DB (2/8) and the “Possibly related AEs by subject” value ([1]; 48 mg DB) was “None”. For the same molecule, the “n/N (number of AEs per number of subjects in dose group)” value ([1]; 96 mg DB) was 96 mg DB (2/8), the “Possibly related AEs by subject” value ([1]; 96 mg DB, listed as Vodobatinib) was “Abdominal pain and soft stool; also recorded: Brain fog, worsening of right lower leg cramps” and the “n/N (number of AEs per number of subjects in dose group)” value ([1]; 96 mg OL) was 96 mg OL (2/4). For the same molecule, the “Possibly related AEs by subject” value ([1]; 96 mg OL, listed as Vodobatinib) was “Dry eyes; also recorded: Worsening of muscle cramps (“probably related”)”, the “n/N (number of AEs per number of subjects in dose group)” value ([1]; 192 mg DB) was 192 mg DB (3/8) and the “Possibly related AEs by subject” value ([1]; 192 mg DB, listed as Vodobatinib) was “Mild rash, epigastric pain; also recorded: Somnolence, worsening of left upper extremities resting tremor; also recorded: Erythematous, pruritic rash on torso and head”. For the same molecule, the “subjects discontinued due to AEs” value ([1]; 192 mg, 384 mg (double-blind), 24 mg (open-label)) was “Three”, the “changes in laboratory values” ([1]; PD patients) was “no clinically significant drug related changes” and the “changes in the QT interval” value ([1]; PD patients) was “no drug-related changes”. For the same molecule, the “overall safety and tolerability” value ([1]; PD patients) was “acceptable safety and tolerability”, the “changes in laboratory values” ([1]; PD patients, listed as vodobatinib) was “no clinically significant drug-related changes” and the “number of TEAEs, overall” value ([1]; PD subjects, 14 days) was 63. The “subjects reporting TEAEs, overall” value ([1]; PD subjects, 14 days) was 32, the “Most common treatment related TEAEs (>1 subject)” value ([1]; double-blind part) was “rash, abdominal pain and tremor” and the “number of TEAEs” value ([1]; double-blind part) was 42. The “subjects reporting TEAEs” value ([1]; double-blind part) was “Twenty-three”, the “subjects reporting TEAEs” value ([1]; double-blind, 6 mg cohort) was 3 and the “subjects reporting TEAEs” value ([1]; double-blind, 12 mg cohort) was 3. The “subjects reporting TEAEs” value ([1]; double-blind, 18 mg cohort) was 2, the “subjects reporting TEAEs” value ([1]; double-blind, 24 mg cohort) was “one” and the “subjects reporting TEAEs” value ([1]; double-blind, 48 mg cohort) was “one”. For the same molecule, the “subjects reporting TEAEs” value ([1]; double-blind, 96 mg cohort) was 2, the “subjects reporting TEAEs” value ([1]; double-blind, 192 mg cohort) was 3 and the “subjects reporting TEAEs” value ([1]; double-blind, 384 mg cohort) was 5. For the same molecule, the “most severe TEAE” value ([1]; one subject, 48 mg group, treatment unrelated, resolved) was “asthenia of grade 3 severity”, the “number of TEAEs” value ([1]; open-label part) was 21 and the “subjects reporting TEAEs” value ([1]; open-label part) was “Nine”. For the same molecule, the “number of TEAEs” value ([1]; open-label, 24 mg cohort (3 subjects)) was 10, the “number of TEAEs” value ([1]; open-label, 48 mg cohort (3 subjects)) was 6 and the “number of TEAEs” value ([1]; open-label, 96 mg cohort (3 subjects)) was 5. The “number of treatment related TEAEs” value ([1]; overall) was 35, the “subjects reporting treatment related TEAEs” value ([1]; overall) was “Twenty-one” and the IC50 (Abl (T315I)) was 8 nM. The Kd (c-Abl) was 0.98 nM, the “times more potent than nilotinib” value (Abl; 0.9 nM vs 20 nM) was 20 and the IC50 (Abl; Table 1) was 0.9 nM. For the same molecule, the IC50 (Arg) was 0.8 nM and the “increase in exposure, capsule to powder (96 to 192 mg or 192 to 384 mg)” value [2] was “approximately 1.4 fold”.
